Test system: T1, acetylcholine esterase (AChE), crude, from rice weevil
T1 construct: gene ace1; native, unpurified; supernatant of whole adult homogenate in phosphate buffer pH 7.4 (8775 g, 20 min)
Test: Ellman colorimetric assay, […] nm
Assay type: biochemical, Sitophilus oryzae
Conditions: crude enzyme; acetylthiocholine iodide 2.5 mM, pH 7.4, 35 °C, 15 min preincubation, compound in ethanol

Row | SMILES | AChE-IC50 (μL mL^-1)
1 | CC12CCC(CC1)C(C)(C)O2 [1,8-Cineole] | 31.13 ± 2.20 µL mL^−1
2 | C=CC(O)CCCCC (stereo not drawn) [1-Octen-3-ol] | 14.82 ± 0.12 µL mL^−1
3 | CC1=CCC(O)(C(C)C)CC1 (stereo not drawn) [4-Terpineol] | 11.29 ± 0.02 µL mL^−1
4 | C=C1CC[C@H]2O[C@]2(C)CC[C@@H]2[C@@H]1CC2(C)C [Caryophyllene oxide] | > 500 µL mL^−1
5 | CC(C)=CCCC(C)CCO (stereo not drawn) [Citronellol] | 86.08 ± 1.09 µL mL^−1
6 | C=C(C)C1CC=C(C)CC1 (stereo not drawn) [Limonene] | 9.57 ± 1.37 µL mL^−1
7 | C=CC(C)(O)CCC=C(C)C (stereo not drawn) [Linalool] | 44.33 ± 1.31 µL mL^−1
8 | C=CC(C)(O)CCC=C(C)CCC=C(C)C (stereo not drawn) [Nerolidol] | 331.24±21.55 µL mL^−1
9 | C=C1CCC2(C(C)C)CC12 (stereo not drawn) [Sabinene] | 85.03 ± 0.20 µL mL^−1
10 | Cc1ccc(C(C)C)cc1 [p-Cymene] | > 500 µL mL^−1
11 | CC1=CCC2CC1C2(C)C (stereo not drawn) [α-Pinene] | 1.81 ± 0.20 µL mL^−1
12 | CC1=CC=C(C(C)C)CC1 [α-Terpinene] | > 500 µL mL^−1
13 | CC1=CCC(C(C)(C)O)CC1 (stereo not drawn) [α-Terpineol] | 18.39 ± 1.52 µL mL^−1
14 | CC1=CCC(=C(C)C)CC1 [α-Terpinolene] | 1.10 ± 0.17 µL mL^−1
15 | C=C1CC/C=C(\C)CC[C@@H]2[C@@H]1CC2(C)C [β-Caryophyllene] | > 500 µL mL^−1
16 | C=CC(=C)CCC=C(C)C [β-Myrcene] | > 500 µL mL^−1
17 | C=C1CCC2CC1C2(C)C (stereo not drawn) [β-Pinene] | > 500 µL mL^−1
18 | CC1=CCC(C(C)C)=CC1 [γ-Terpinene] | > 500 µL mL^−1

From article PMC7022718, “Composition and Insecticidal Activity of Essential Oil of Bacopa caroliniana and Interactive Effects of Individual Compounds on the Activity” (Insects, 2019)
